The text below walks through data of publication PMC11288129, “Diversely evolved xibalbin variants from remipede venom inhibit potassium channels and activate PKA-II and Erk1/2 signaling” (BMC Biology, 2024).

For data set [1], the system named is Kv1.1. The experiment in a line: TEVC inhibition, Kv1.1. In kind it is cell-based, rat. Also on record: Inhibition data, Kv1.1: unit not given here. Particulars: 1 µM. The source says: (§1) For the expression of Kv channels rat Kv1.1 (GenBank accession number: NM_173095 [88, 89]), rKv1.2 (NM_012970 [90, 91]), human Kv1.3 (NM_002232 [92, 93]), rKv1.4 (NM_012971 [94, 95]), rKv1.6 (NM_023954 [96, 97]), hKv2.1 (NM_004975 [98, 99]), hKv3.1 (NM_004976 [100, 101]), rKv4.2 (NM_031739 [102, 103]), hKv10.1 (NM_172362 [104, 105]), hERG1 [Kv11.1, (NM_000238 [106, 107])], and Shaker IR [from Drosophila melanogaster, (NM_167595 [108, 109])], Nav channels [rNav1.2 (NM_012647 [42, 110]), rNav1.4 (NM_013178 [111, 112]), hNav1.5 (NM_198056 [113, 114]), mNav1.6 (NM_001077499 [115, 116]), BgNav [from Blattella germanica, (DQ466887 [117, 118])] and the auxiliary subunits rβ1 (NM_001271045 [119, 120]), hβ1 (NM_001037 [121, 122]), and TipE [from D. melanogaster, (NM_079196 [109, 123])], and Cav channels hCav3.1 [124, 125], hCav3.2 [126, 127], and hCav3.3 [128, 129] in Xenopus oocytes, the linearized plasmids were transcribed using the T7 or SP6 mMESSAGEmMACHINE transcription kit (Ambion, Austin, TX, USA). Mature female animals were purchased from Nasco (Fort Atkinson, USA) and were housed in the Aquatic Facility (KU Leuven) in compliance with the regulations of the European Union (EU) concerning the welfare of laboratory animals as declared in Directive 2010/63/EU. The use of X. laevis oocytes was approved by the Animal Ethics Committee of the KU Leuven with the license number P186/2019. Stage V–VI oocytes were collected from anesthetized female X. laevis frog as previously described, with the frogs anesthetized by placement in 0.1% tricaine solution (amino benzoic acid ethyl ester; Merck, USA). Oocyte microinjection was performed using a microinjector (Drummond Scientifc®, USA), with a programmed cRNA injection volume of 4—50 nL, depending on the channel subtype. The oocytes were incubated in ND96 solution (96 mM NaCl, 2 mM KCl, 1.8 mM CaCl2, 2 mM MgCl2, and 5 mM HEPES, pH 7.4), supplemented with 50 mg/l gentamicin sulfate.
(§2) Electrophysiological measurements were performed at room temperature (18–22 °C) using the two-electrode voltage clamp (TEVC) technique. Data were obtained using a GeneClamp 500 amplifier (Axon Instruments, USA), and Clampex9 software (Axon Instruments), responsible for data acquisition and storage. Glass micropipettes were produced using glass capillaries (borosilicate WPI 1B120-6) and drawn in a WPI (World Precision Instruments, USA) manual stretcher. The bath and perfusion solutions were either the previously described ND96 (Nav and Kv channels) or calcium-free ND96 supplemented with 10 mM BaCl2 (Cav channels).
(§3) Whole-cell currents of oocytes were recorded 1 to 3 days after injection. Current and voltage electrodes were filled with 3 M KCl and their resistance was adjusted from 0.7 to 2.0 MΩ. Currents were sampled at 20 kHz (Nav channels) and 10 kHz (Kv and Cav channels) and filtered using a four-pole Bessel low-pass Bessel filter, at 1 kHz for sodium, and […] for potassium and calcium, except for the hERG ion channel, in which the currents were filtered at 1 kHz. Leak subtraction was performed using a -P/4 protocol. Kv1.x currents were evoked by 500 ms depolarizations to 0 mV followed by a 500-ms pulse to − 50 mV, from a holding potential of − 90 mV. Kv2.1, Kv3.1, and Kv4.2 currents were elicited by 500 ms pulses to + 20 mV from a holding potential of − 90 mV. Current traces of Kv10.1 were elicited by 2 s depolarization to 0 mV, from a holding potential of − 90 mV. Current traces of hERG1 channel were elicited by applying a + 40 mV prepulse for 2 s followed by a step of − 120 mV for 2 s. Sodium current traces were evoked by a 100 ms depolarization to 0 mV, from a holding potential of − 90 mV. The current–voltage (IV) relationships were determined by 100-ms step depolarizations between − 90 and + 40 mV, using 5 mV increments. […]

In data set [2] the test system is Kv1.3. The experiment in a line: TEVC inhibition, Kv1.3. In kind it is cell-based, human. Details: unit not given here. Particulars: 1 µM.
Text: as §1, §2, §3

The test system of data set [3] is rKv1.2. The experiment in a line: TEVC inhibition, Kv1.2. The class given is cell-based, rat. Particulars: 1 µM.
Text: as §1, §2, §3

For data set [4], the system named is hERG1 (Kv11.1). The experiment in a line: TEVC inhibition, Kv11.1 (hERG1). The class given is cell-based. Particulars: human, Xenopus laevis oocytes expressing hERG1 (Kv11.1), pH 7.4, replicate 1. The source says:
(§4) For the expression of Kv channels rat Kv1.1 (GenBank accession number: NM_173095 [88, 89]), rKv1.2 (NM_012970 [90, 91]), human Kv1.3 (NM_002232 [92, 93]), rKv1.4 (NM_012971 [94, 95]), rKv1.6 (NM_023954 [96, 97]), hKv2.1 (NM_004975 [98, 99]), hKv3.1 (NM_004976 [100, 101]), rKv4.2 (NM_031739 [102, 103]), hKv10.1 (NM_172362 [104, 105]), hERG1 [Kv11.1, (NM_000238 [106, 107])], and Shaker IR [from Drosophila melanogaster, (NM_167595 [108, 109])], Nav channels [rNav1.2 (NM_012647 [42, 110]), rNav1.4 (NM_013178 [111, 112]), hNav1.5 (NM_198056 [113, 114]), mNav1.6 (NM_001077499 [115, 116]), BgNav [from Blattella germanica, (DQ466887 [117, 118])] and the auxiliary subunits rβ1 (NM_001271045 [119, 120]), hβ1 (NM_001037 [121, 122]), and TipE [from D. melanogaster, (NM_079196 [109, 123])], and Cav channels hCav3.1 [124, 125], hCav3.2 [126, 127], and hCav3.3 [128, 129] in Xenopus oocytes, the linearized plasmids were transcribed using the T7 or SP6 mMESSAGEmMACHINE transcription kit (Ambion, Austin, TX, USA). […]
(§5) Whole-cell currents of oocytes were recorded 1 to 3 days after injection. […] The current–voltage (IV) relationships were determined by 100-ms step depolarizations between − 90 and + 40 mV, using 5 mV increments. […]

For data set [5], the system named is rKv4.2. The experiment in a line: TEVC inhibition, Kv4.2. Particulars: 1 µM. Also on record: unit not given here. In kind it is cell-based, rat.
Text: as §1, §2, §3

The test system of data set [6] is rNav1.4. The data set is described as follows: TEVC inhibition, Nav1.4. The class given is cell-based, rat. As to conditions: 1 µM, Xenopus oocytes, ND96, 18–22 °C, mean ± SEM, n ≥ 3.
Text: as §4, §5

Data set [7] concerns mNav1.6. The data set is described as follows: TEVC inhibition, Nav1.6. Particulars: 1 µM, Xenopus oocytes, ND96, 18–22 °C, mean ± SEM, n ≥ 3. In kind it is cell-based, mouse.
Text: as §4, §5

Data set [8] deals with hCav3.3. The data set is described as follows: TEVC inhibition, Cav3.3. The class given is cell-based, human. Also on record: unit not given here. Particulars: 1 µM.
Text: as §1, §2, §3

Positions of bridges follow the written chain, without caps; N, C: chain ends. No end group written: not given here.

Usually inhibition stands for the share of the control response that was lost under treatment. Take “KRSCIRRFGRCDHRPNDCCYNSSCRCNLWGSNCRCQRMGLFQKWGK (disulfide 4-19, 11-24, 18-35, 26-33) [xib13]”: in data set [1], the “inhibition of Kv1.1” value is “inhibit especially Kv1.1 channels”. For the same sequence, the “Inhibition data, Kv1.1” value amounted to 83.4 in data set [1] (replicate 1), 86.7 in data set [1] (replicate 2), 85.0 in data set [1] (replicate 3) and 83.1 in data set [1] (replicate 4). Further, the “Inhibition data, Kv1.3” value in data set [2] (replicate 1) stood at 61.2; in data set [2] (replicate 2) it was 57.8; in data set [2] (replicate 3), 41.4; in data set [2] (replicate 4), 53.4. Besides, the “Inhibition data, Kv1.2” value in data set [3] (replicate 1) is 58.6; in data set [3] (replicate 2), 71.3; in data set [3] (replicate 3) it was 77.9. The same sequence returned an inhibition at 1 µM in data set [4] of 0%. Moreover, the “Inhibition data, Kv4.2” value in data set [5] (replicate 1), in data set [5] (replicate 2), in data set [5] (replicate 3) and in data set [5] (replicate 4) was 0.0 throughout. In addition, the “inhibition of Nav1.4” value in data set [6] is 33.0 ± 2.4%. Further, in data set [7], the “inhibition of Nav1.6” value stood at 10.7 ± 0.9%. The “Inhibition data, Cav3.3” value in data set [8] (replicate 1), in data set [8] (replicate 2), in data set [8] (replicate 3) and in data set [8] (replicate 4) was 0.0 in each case.

Regarding “RLFCIRHHKYCGHRPKRCCSGLFCRCNTFGTNCRCQSKGALGKLI (disulfide 4-19, 11-24, 18-35, 26-33) [xib1]”, the “inhibition of Kv1.1” value in data set [1] was “inhibit especially Kv1.1 channels”. Also, the “Inhibition data, Kv1.1” value in data set [1] (replicate 1) is given as 76.3; in data set [1] (replicate 2), 66.2; in data set [1] (replicate 3), 76.2; in data set [1] (replicate 4), 75.3. The “Inhibition data, Kv1.3” value is 59.5 in data set [2] (replicate 1), 65.4 in data set [2] (replicate 2), 60.6 in data set [2] (replicate 3) and 62.3 in data set [2] (replicate 4). In data set [3] (Xenopus oocytes, ND96, 18–22 °C, mean ± SEM, n ≥ 3), the “inhibition of Kv1.2” value was 50.2 ± 2.6%. Further, the “Inhibition data, Kv1.2” value in data set [3] (replicate 1) worked out at 52.8; in data set [3] (replicate 2), 47.6; in data set [3] (replicate 3), 48.2; in data set [3] (replicate 4), 46.0. The same sequence returned an inhibition at 1 µM in data set [4] of 0%. Also, the “Inhibition data, Kv4.2” value in data set [5] (replicate 1), in data set [5] (replicate 2), in data set [5] (replicate 3) and in data set [5] (replicate 4) was 0.0 in each case. Moreover, the “inhibition of Nav1.4” value in data set [6] stood at 21.8 ± 3.3%. The “inhibition of Nav1.6” value in data set [7] is on record as 5.7 ± 1.2%. In addition, the “Inhibition data, Cav3.3” value in data set [8] (replicate 1), in data set [8] (replicate 2), in data set [8] (replicate 3) and in data set [8] (replicate 4) was 0.0 each time.
